Tests used:
NCI-H226 = assay: NCI SRB cytotoxicity, NCI-H226; type: cell-based, human; conditions: Non-small cell lung NCI-H226, 48 hrs exposure
From the text: (§1) The C8-linked carbazole-PBD hybrids have been tested against sixty human tumour cell lines derived from nine cancer types (leukemia, non-small cell lung cancer, colon cancer, CNS cancer, melanoma, ovarian cancer, renal cancer, prostate cancer and breast cancer) as per NCI protocol, For each compound, dose response curves for individual cell lines have been measured at a minimum of five concentrations at 10 fold dilutions. A protocol of 48 hrs continuous drug exposure has been used, and a sulforhodamine B (SRB) protein assay was used to estimate cell viability or growth. The concentration for 50% cell growth inhibition (GI50), total cell growth inhibition (TGI, 0% growth) and 50% cell death (LC50, […]) compared with the control has been calculated (Table-3).
(§2) Compounds 6c and 14a have been evaluated for in vitro cytotoxicity in sixty cell lines from nine human cancer types of lung (Hop-62, NCI-H226, NCI-H522), leukemia (K-562, SR), colon (HCT-116, HCT-15, HCC-2998), CNS(SF-539), melanoma (SK-MEL-5, UACC-62, M14), ovarian (IGROV1), renal (A498), prostate (PC3) breast (BT-549, MDA-MB-435, HS578T) origin. The results are expressed as percent of cell growth determined relative to that of untreated control cells (Table 1).

CCRF-CEM = assay: NCI SRB cytotoxicity, CCRF-CEM; type: cell-based, human; conditions: Leukemia CCRF-CEM, 48 hrs exposure
From the text: as §1, §2

U251 = assay: NCI SRB cytotoxicity, U251; type: cell-based, human; conditions: CNS U251, 48 hrs exposure
From the text: as §1, §2

[1] = system: duplex-form calf thymus DNA (CT-DNA); assay: Thermal denaturation studies (DNA binding); conditions: [PBD]:[DNA] molar ratio 1:5, CT-DNA 100 μM, ligand 20 μM; for ΔTm after incubation at 37 °C for 0 h: pH 7.00, 0 h; for ΔTm after incubation at 37 °C for 18 h: pH 7.00, 18 h
Procedure: Compounds have been subjected to thermal denaturation studies with duplex-form calf thymus DNA (CT-DNA) using a modification of a reported procedure. Working solutions in aqueous buffer ([…] NaH2PO4/Na2HPO4, 1 mM Na2EDTA, pH 7.00±0.01) containing CT-DNA (100 μM in phosphate) and the PBD (20 μM) have been prepared by addition of concentrated PBD solutions in DMSO to obtain a fixed [PBD]/[DNA] molar ratio of 1:5. The DNA-PBD solutions have been incubated at 37° C. for 0 and 18 hrs prior to analysis. Samples have been monitored at 260 nm using a Beckman DU-800 spectrophotometer fitted with high performance temperature controller, and heated at 1° C. min^−1 in the 40-110° C. range. DNA helix→coil transition temperatures (Tm) have been obtained from the maxima in the d(A260)/dT derivative plots. Drug-induced alterations in DNA melting behavior are given by: […]Tm=Tm(DNA+PBD)-Tm(DNA alone), where the Tm value for the PBD-free CT-DNA is 68.5 […]0.01.
The DNA-binding for these C8-linked carbazole-PBD hybrids has been examined by thermal denaturation studies using calf thymus (CT) DNA. […] Data for 6a, 6b, 6c, 14a, 14b, and 14d and DC-81 are included in Table 5 for comparison.

M14 = assay: NCI SRB cytotoxicity, M14; type: cell-based, human; conditions: Melanoma M14, 48 hrs exposure
From the text: as §1, §2

LOX IMVI = assay: NCI SRB cytotoxicity, LOX IMVI; type: cell-based, human; conditions: Melanoma LOX IMVI, 48 hrs exposure
From the text: as §1, §2

CAKI-1 = assay: NCI SRB cytotoxicity, CAKI-1; type: cell-based, human; conditions: Renal CAKI-1, 48 hrs exposure
From the text: as §1, §2

MOLT-4 = assay: NCI SRB cytotoxicity, MOLT-4; type: cell-based, human; conditions: Leukemia MOLT-4, 48 hrs exposure
From the text: as §1, §2

OVCAR-5 = assay: NCI SRB cytotoxicity, OVCAR-5; type: cell-based, human; conditions: Ovarian OVCAR-5, 48 hrs exposure
From the text: as §1, §2

MCF7 = assay: NCI SRB cytotoxicity, MCF7; type: cell-based, human; conditions: Breast MCF7, 48 hrs exposure
From the text: as §1, §2

K-562 = assay: NCI SRB cytotoxicity, K-562; type: cell-based, human; conditions: Leukemia K-562, 48 hrs exposure
From the text: as §1, §2

HL-60(TB) = assay: NCI SRB cytotoxicity, HL-60(TB); type: cell-based, human; conditions: Leukemia HL-60(TB), 48 hrs exposure
From the text: as §1, §2

A549/ATCC = assay: NCI SRB cytotoxicity, A549/ATCC; type: cell-based, human; conditions: Non-small cell lung A549/ATCC, 48 hrs exposure
From the text: as §1, §2

DU-145 = assay: NCI SRB cytotoxicity, DU-145; type: cell-based, human; conditions: Prostate DU-145, 48 hrs exposure
From the text: as §1, §2

PC-3 = assay: NCI SRB cytotoxicity, PC-3; type: cell-based, human; conditions: Prostate PC-3, 48 hrs exposure
From the text: as §1, §2

SF-268 = assay: NCI SRB cytotoxicity, SF-268; type: cell-based, human; conditions: CNS SF-268, 48 hrs exposure
From the text: as §1, §2

SF-539 = assay: NCI SRB cytotoxicity, SF-539; type: cell-based, human; conditions: CNS SF-539, 48 hrs exposure
From the text: as §1, §2

SR = assay: NCI SRB cytotoxicity, SR; type: cell-based, human; conditions: Leukemia SR, 48 hrs exposure
From the text: as §1, §2

NCI-H522 = assay: NCI SRB cytotoxicity, NCI-H522; type: cell-based, human; conditions: Non-small cell lung NCI-H522, 48 hrs exposure
From the text: as §1, §2

HT 29 = assay: NCI SRB cytotoxicity, HT 29; type: cell-based, human; conditions: Colon HT 29, 48 hrs exposure
From the text: as §1, §2

SW-620 = assay: NCI SRB cytotoxicity, SW-620; type: cell-based, human; conditions: Colon SW-620, 48 hrs exposure
From the text: as §1, §2

Which results are given for `COc1cc2c(cc1OCCCCCn1c3ccccc3c3ccccc31)N=C[C@@H]1CCCN1C2=O` [Compound 6c, 7-Methoxy-8-[5-(9H-9-carbazoly)pentyloxy]-(11aS)-1,2,3,11a-tetrahydro-5H-Pyrrolo[2,1-c][1,4]benzodiazepin-5-one]?
GI50 (NCI-H226): 2.49 µM; GI50 (CCRF-CEM): 1.97 µM; GI50 (U251): 1.59 µM; ΔTm after incubation at 37 °C for 0 h [1]: 4.1 °C; ΔTm after incubation at 37 °C for 18 h [1]: 4.9 °C; GI50 (M14): 2.1 µM; GI50 (LOX IMVI): 2.08 µM; GI50 (CAKI-1): 1.93 µM; GI50 (MOLT-4): 2.15 µM; GI50 (OVCAR-5): 2.42 µM; GI50 (MCF7): 2.33 µM; GI50 (K-562): 2.6 µM; GI50 (HL-60(TB)): 1.72 µM; GI50 (A549/ATCC): 1.57 µM; GI50 (DU-145): 2.23 µM; GI50 (PC-3): 2.36 µM; GI50 (SF-268): 1.91 µM; GI50 (SF-539): 1.85 µM

Which GI50 (CCRF-CEM) does the source give for `COc1cc2c(cc1OCCCN1CCN(CCCn3c4ccccc4c4ccccc43)CC1)N=C[C@@H]1CCCN1C2=O` [Compound 14a] here?
Its GI50 is 0.02 µM.

And the “ΔTm after incubation at 37 °C for 0 h” value [1]?
Its value is 7.5 °C.

What about the “ΔTm after incubation at 37 °C for 18 h” value [1] of the same molecule?
The value was 8.2 °C.

And the GI50 (SR)?
Its GI50 is 0.03 µM.

And the GI50 (CAKI-1)?
Its GI50 is 0.12 µM.

What about the GI50 (NCI-H522) of the same molecule?
The GI50 was less than 0.01 µM.

What about the GI50 (HT 29) of the same molecule?
Its GI50 is 0.05 µM.

What about the GI50 (HL-60(TB)) of the same molecule?
Its GI50 is 0.03 µM.

And the GI50 (SW-620)?
Its GI50 is 0.04 µM.

And the GI50 (SF-539)?
The GI50 was 0.12 µM.

— patent US8927538B2, “Carbazole linked pyrrolo[2,1-c][1,4]benzodiazefine hybrids as potential anticancer agents and process for the preparation thereof” (Council of Scientific & Industrial Research, priority 2010, dated 2015)
